Data on 3 compounds can be found in patent US4764509A, “Pharmaceutical compositions containing di-gold phosphine” (SmithKline Beckman Corporation, priority 1987, dated 1988).

Values joined by “and” are separate entries in the source; they are usually repeats but may differ in a detail not shown here. Equal values may be shown once.

The conditions of series [1]: Struck et al. 1966; cited from earlier work.
Series [2] can be described thus: maximally tolerated dose in mice, ip qDx5 regimen (P388 experiment). In kind it is in vivo, mouse (B62DF female). The settings on record: B62DF female mice. How it is done: 10^6 P388 leukemia cells are inoculated ip in B6D2F1 mice. Twenty-four hours later, if the tumor inoculum proves to be free of bacterial contamination (as determined by 24 hours incubation in thioglycollate broth), animals are randomized into groups of 6 and housed in shoebox cages. The compound to be evaluated is dissolved in a minimal volume of either N,N-dimethylacetamide (DMA) or 95% ethanol (depending upon solubility). An equal volume of saline is added; if the drug comes out of solution an equal volume of polyethoxylated castor oil is added and then saline qs to a concentration such that the desired dose is delivered in 0.5 ml. The final concentration of DMA, ethanol and polyethoxylated castor oil is 10 percent. Dilutions for lower doses are made with saline so there is a decreasing proportion of organic solvents in the vehicle with decreasing dosage These vehicles provide soluble formulations (or suspensions). Formulations are prepared immediately prior to injection. The compound is administered ip on Days 1 through 5 (i.e. treatment is initiated 24 hrs after tumor inoculation). Each experiment includes three groups of 6 animals as untreated controls and animals treated with a positive control, cisplatin, at two dose levels. […] Animals are monitored daily for mortality and experiments are terminated after 45 days. […]

A further series concerns P388 leukemia. Nature of the series: in vivo ip P388 lymphocytic leukemia mouse model (increase in lifespan). More on the design: species or system mouse (B6D2F1). The settings on record: ip Days 1 through 5; figures separated by slashes are from separate experiments; ≥25 percent ILS considered active. From the text: P388 lymphocytic leukemia is currently the most widely used animal tumor model for screening for antitumor agents and for detailed evaluation of active compounds. This tumor system is widely accepted as an antitumor agent screening tool because it is sensitive to virtually all of the clinically active antineoplastic agents; quantitative and reproducible; amenable for large-scale screening; and predictive for activity in other animal tumor models.
10^6 P388 leukemia cells are inoculated ip in B6D2F1 mice. Twenty-four hours later, if the tumor inoculum proves to be free of bacterial contamination (as determined by 24 hours incubation in thioglycollate broth), animals are randomized into groups of 6 and housed in shoebox cages. The compound to be evaluated is dissolved in a minimal volume of either N,N-dimethylacetamide (DMA) or 95% ethanol (depending upon solubility). An equal volume of saline is added; if the drug comes out of solution an equal volume of polyethoxylated castor oil is added and then saline qs to a concentration such that the desired dose is delivered in 0.5 ml. The final concentration of DMA, ethanol and polyethoxylated castor oil is 10 percent. […] Animals are monitored daily for mortality and experiments are terminated after 45 days. […]

A further series relates to B16 melanoma. The series can be described thus: in vivo ip B16 melanoma assay (increase in lifespan). To be noted: ip daily for ten (10) days; ILS of ≥25% indicates activity. Also on record: species or system mouse (B6D2F1). The procedure: (§1) In this system, groups of eight B6D2F1 mice are inoculated ip with 0.5 ml of a 10% (w:v) brei of B16 melanoma prepared from pooled sc tumors excised at 14-21 days from […] donor mice. Daily treatment is begun 24 hours after tumor implantation and is continued daily for ten (10) days. The route of drug administration is ip. The mice are monitored daily for survival for sixty (60) days. Antitumor activity is assessed by prolongation of median survival time. An ILS of ≥25% indicates activity in this tumor model.

Series [3] can be described thus: maximally tolerated dose in mice, ip qD x 10 regimen (B16 experiment). In kind it is in vivo, mouse (B6D2F1). The settings on record: B6D2F1 mice, ip qD × 10 regimen. How it is done:
as §1
^(b) maximally tolerated dose for B6D2F1 mice on a ip qD ×

On to `c1ccc(P(CCP(c2ccccc2)c2ccccc2)c2ccccc2)cc1` [1,2-bis(diphenylphosphino)ethane], for which the “cytotoxic activity (in words)” value in series [1] is given as “cytotoxic activity”.
“Dichlorobis[1,2-bis(diethylphosphino)ethane]digold [Compound 2]”: the “MTD (maximally tolerated dose)” value in series [2] is recorded as 16 mg/kg. In the series with P388 leukemia, the “ILS (max): maximum increase in lifespan, mice bearing ip P388 leukemia” value was determined as 29%.
In the case of “Dichlorobis[1,2-bis(diphenylphosphino)ethane]digold [Compound 1]”, the “MTD (maximally tolerated dose)” value in series [2] amounted to 8 mg/kg; in series [3] it was 4 mg/kg. Further, in the series with B16 melanoma, the “ILS: maximum increase in lifespan, mice bearing ip B16 melanoma” value amounted to 35%. Moreover, the “ILS (max): maximum increase in lifespan, mice bearing ip P388 leukemia” value in the series on P388 leukemia was 81% and 91% and 55%.
